Measured values from patent publication US12286400B2, “Isofagomine salts, methods of use and formulations” (TAKEDA PHARMACEUTICAL COMPANY LIMITED, priority 2019, dated 2025).

What was measured:
[1] = system: mutant GCase; conditions: in vitro, fibroblasts from Gaucher patients; cited from earlier work
[2] = Storage stress-tests at 80° C. in closed vials (CAD-HPLC, 1H-NMR, XRPD); format: physicochemical
Protocol: In order to obtain insight regarding thermal stability of the four crystalline IFG salts, storage stress-tests at 80° C. over several days were conducted. A sample of the free base (SP245-FB-P4), a fumarate sample (SP245-FUM-P5), a D-tartrate sample (SP245-DTA-P7), an L-tartrate sample (SP245-LTA-P5) and an oxalate sample SP245-OXA-P2 were stored at 80° C. for one, three and seven days in closed vials. Samples were tested by CAD and ^1H-NMR.
CAD-HPLC was performed in order to identify the possible adducts or thermal degradation product that could be generated upon storage under the given conditions. All samples were examined by CAD-HPLC; however, no considerable changes were observed between the starting materials and the stored samples. […] In addition, XRPD was carried out for the seven-day stored crystalline salt samples and the XRPD patterns before and after storage were essentially identical.
NMR spectroscopy was conducted on the seven-day stored samples.

[3] = Dynamic vapor sorption (DVS); format: physicochemical; conditions: for additional weight gain upon storage at 95% RH: holding at 95% RH; for mass gain until 95% RH: scanning up to 95% RH; for gain in weight when increasing the RH from 0 to 80%: RH 0 to 80%
Excerpt: The behavior of the IFG quinate salt, sample SP245-QNC-P2, was investigated in the presence of variable water vapor pressure using DVS measurement. The result from the DVS test is presented in FIG. 6 and FIG. 6B as the DVS isotherm of sample SP245-QNC-P2: the change of relative sample weight (red curve) and relative humidity (blue curve) as a function of time.
The SP245-QNC-P2 salt prepared in example 1 is hygroscopic at high relative humidity; i.e., above about 80% RH.
The effect of changes in relative humidity on the IFG fumarate sample SP245-FUM-P4 was studied using DVS.
The IFG fumarate salt is hygroscopic at relative humidities above about 80%.
The effect of changes in relative humidity on the IFG oxalate salt sample SP245-OXA-P1 was studied using DVS.
The oxalate salt is hygroscopic above 80% RH.
The effect of changes in relative humidity on the crystalline IFG tartrate salt sample SP245-DTA-P3 was studied using DVS.

[4] = TG-FTIR thermogram; format: physicochemical
Protocol: The obtained crystalline form SP245-QNC-P2 is anhydrous/non-solvated. […] Decomposition is observable above 200° C.
The fumarate salt is a solvent and water-free form. Decomposition is observable above 150° C.

Row | Compound | effect on activity of mutant GCase [1] | CAD-HPLC Area % ([2]; 80° C., closed vial, 1 day) [%] | CAD-HPLC Area % ([2]; 80° C., closed vial, 3 days) [%] | CAD-HPLC Area % ([2]; 80° C., closed vial, 7 days) [%] | NMR after storage compared to the non-stressed sample ([2]; 80° C., seven days) | CAD-HPLC Area % ([2]; starting material) [%] | relative humidity up to which the salt is not hygroscopic ([3]; DVS) [%] | mass change upon increasing the relative humidity from 0% to 70% ([3]; DVS, RH 0% to 70%) | additional weight gain upon storage at 95% RH ([3]; DVS) [%] | mass gain until 95% RH ([3]; DVS) [%] | relative humidity above which the salt is hygroscopic ([3]; DVS) | gain in weight when increasing the RH from 0 to 80% ([3]; DVS) | weight loss when decreasing the relative humidity from 50 to 0% RH ([3]; DVS, RH 50 to 0%) [weight %] | gain in weight at 95% RH compared to the first cycle ([3]; DVS, second cycle) [%] | XRPD of sample recovered after DVS measurement [3] | Decomposition observable above [4] | gain in weight when increasing the RH from 0 to 75% ([3]; DVS, RH 0 to 75%) | weight change when decreasing the relative humidity from 50 to 0% ([3]; DVS, RH 50 to 0%)
1 | OC[C@H]1CNC[C@@H](O)[C@@H]1O [SP245-FB-P4, (3R,4R,5R)-3,4-dihydroxy-5-hydroxymethylpiperidine, reference compound] | increase the activity of mutant GCase | 80.2 | 80.6 | 80.4 | several additional NMR signals were observed after storage | 81.1 |  |  |  |  |  |  |  |  |  |  |  | 
2 | O=C(O)C(O)C(O)C(=O)O.OC[C@H]1CNC[C@@H](O)[C@@H]1O [SP245-LTA-P5, IFG L-(+)-tartrate] |  | 83.9 | 84.1 | 85.3 |  | 84.3 |  |  |  |  |  |  |  |  |  |  |  | 
3 | isofagomine D-(−)-tartrate [SP245-DTA-P3] |  | 85 | 85.1 | 85.6 |  | 86.3 | 70 | No mass change | 70 | 32 |  |  |  |  |  |  |  | 
4 | isofagomine fumarate [SP245-FUM-P4] |  | 86.9 | 87.1 | 87.8 |  | 87.9 |  |  | 47 | 11 | about 80 % RH | no considerable gain in sample mass | < 1 | 5 | correspond to the sample SP245-FUM-P4 used as starting material | above 150 °C |  | 
5 | isofagomine oxalate [SP245-OXA-P1] |  | 83.6 | 82.9 | 83.6 |  | 85.9 |  |  | 90 | 30 | 80 % RH |  |  |  | corresponds to the starting material |  | no gain in weight | No significant loss in weight
6 | isofagomine quinate [SP245-QNC-P2] |  |  |  |  |  |  |  |  | 70 | 20 | about 80 % RH | no gain in weight |  |  | no form change was observed | above 200 °C |  | No significant loss in weight
